Data reported in US12319672B2, “Alpha-D-galactopyranoside derivatives” (Idorsia Pharmaceuticals Ltd, priority 2019, dated 2025).
pIC50: −log10 of the molar value.

Key:
[1] = target: human Gal-3 (hGal-3) (Homo sapiens (Human), UniProt P17931); assay: Competitive binding assay: binding of biotinylated hGal-3 to microplate-adsorbed asialofetuin (ASF); conditions: Activity on hGal-3; mean values of several measurements
Summary of the method: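 Biotinylated hGal-3 (300-1000 ng/mL) bound to ASF-coated wells with serially diluted compound, 3 h at 4° C. After washing, bound protein was detected with streptavidin-peroxidase (80 ng/mL, 1 h, 4° C) and ABTS substrate; IC50 values are means of several measurements.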

[2] = target: human Gal-1 (hGal-1); assay: Competitive binding assay: binding of biotinylated hGal-1 to microplate-adsorbed asialofetuin (ASF); conditions: Activities on hGal-1; mean values of several measurements
Chain of human Gal-1 (hGal-1) (P09382 2-135 limits assumed): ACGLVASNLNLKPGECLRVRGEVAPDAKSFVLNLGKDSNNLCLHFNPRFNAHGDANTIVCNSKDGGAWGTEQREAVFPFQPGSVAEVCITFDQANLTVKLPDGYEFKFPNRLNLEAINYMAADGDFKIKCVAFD
Summary of the method: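 Compounds diluted in DMSO competed with biotinylated hGal-3 or hGal-1 (300-1000 ng/mL) for binding to plate-adsorbed asialofetuin for 3 h at 4° C. Bound galectin was detected with streptavidin-peroxidase (80 ng/mL, 1 h, 4° C) and ABTS substrate; IC50 reported as mean of several measurements.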

Chain of human Gal-3 (hGal-3) (P17931 whole entry): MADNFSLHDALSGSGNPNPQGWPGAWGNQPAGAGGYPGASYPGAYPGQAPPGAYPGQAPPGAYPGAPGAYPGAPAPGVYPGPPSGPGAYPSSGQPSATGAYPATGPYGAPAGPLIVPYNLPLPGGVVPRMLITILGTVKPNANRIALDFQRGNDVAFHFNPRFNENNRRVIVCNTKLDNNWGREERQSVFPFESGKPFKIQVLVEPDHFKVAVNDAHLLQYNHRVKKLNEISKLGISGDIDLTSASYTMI

pIC50 [1] | pIC50 [2] | Structure (SMILES)
6.72 | 5.84 | CO[C@@H]1[C@@H](n2cc(-c3cc(F)c(Cl)c(F)c3)nn2)[C@@H](O)[C@@H](CO)O[C@@H]1Cc1cc(C2CCOCC2)on1 [Ex 1.185]
7.07 | 5.21 | CO[C@@H]1[C@@H](n2cc(-c3ccc(C)c(F)c3F)nn2)[C@@H](O)[C@@H](CO)O[C@@H]1Cc1cc(C2CCOCC2)on1 [Ex 1.186]
6.35 | 5.22 | CO[C@@H]1[C@@H](n2cc(-c3cc(F)cc(Cl)c3)nn2)[C@@H](O)[C@@H](CO)O[C@@H]1Cc1cc(C2CCOCC2)on1 [Ex 1.187]
6.74 | 5.12 | CO[C@@H]1[C@@H](n2cc(-c3cc(F)c(C)c(F)c3)nn2)[C@@H](O)[C@@H](CO)O[C@@H]1Cc1cc(C(C)(C)C)on1 [Ex 1.188]
6.77 | 5.27 | CO[C@@H]1[C@@H](n2cc(-c3ccc(C)c(F)c3)nn2)[C@@H](O)[C@@H](CO)O[C@@H]1Cc1cc(C(C)(C)C)on1 [Ex 1.189]
7.15 | 5.34 | CO[C@@H]1[C@@H](n2cc(-c3ccc(Cl)c(F)c3F)nn2)[C@@H](O)[C@@H](CO)O[C@@H]1Cc1cc(C(C)(C)C)on1 [Ex 1.190]
6.82 | 5.44 | CO[C@@H]1[C@@H](n2cc(-c3ccc(Br)c(F)c3F)nn2)[C@@H](O)[C@@H](CO)O[C@@H]1Cc1cc(C(C)(C)C)on1 [Ex 1.191]
6.70 | 5.73 | CO[C@@H]1[C@@H](n2cc(-c3ccc(Cl)c(F)c3)nn2)[C@@H](O)[C@@H](CO)O[C@@H]1Cc1cc(C(C)(C)C)on1 [Ex 1.192]
6.92 | 5.90 | CO[C@@H]1[C@@H](n2cc(-c3ccc(F)c(F)c3F)nn2)[C@@H](O)[C@@H](CO)O[C@@H]1Cc1cc(C(C)(C)C)on1 [Ex 1.193]
6.74 | 5.45 | CO[C@@H]1[C@@H](n2cc(-c3cc(F)c(Cl)c(F)c3)nn2)[C@@H](O)[C@@H](CO)O[C@@H]1Cc1cc(C(C)(C)C)on1 [Ex 1.194]
7.22 | 5.48 | CO[C@@H]1[C@@H](n2cc(-c3ccc(C)c(F)c3F)nn2)[C@@H](O)[C@@H](CO)O[C@@H]1Cc1cc(C(C)(C)C)on1 [Ex 1.195]
6.40 | 5.61 | CO[C@@H]1[C@@H](n2cc(-c3cc(F)cc(Cl)c3)nn2)[C@@H](O)[C@@H](CO)O[C@@H]1Cc1cc(C(C)(C)C)on1 [Ex 1.196]
6.96 | 5.66 | CO[C@@H]1[C@@H](n2cc(-c3cc(F)c(F)c(F)c3)nn2)[C@@H](O)[C@@H](CO)O[C@@H]1Cc1cc(C2CCN(S(=O)(=NC(C)C)C(C)C)CC2)on1 (stereo partly shown) [Ex 1.197]
7.33 | 5.44 | CCOC(=O)N1CCC(c2cc(C[C@H]3O[C@H](CO)[C@H](O)[C@H](n4cc(-c5ccc(Br)c(F)c5F)nn4)[C@H]3OC)no2)CC1 [Ex 1.198]
7.28 | 5.22 | CCOC(=O)N1CCC(c2cc(C[C@H]3O[C@H](CO)[C@H](O)[C@H](n4cc(-c5cc(F)c(Cl)c(F)c5)nn4)[C@H]3OC)no2)CC1 [Ex 1.199]
6.92 | 5.82 | CCOC(=O)N1CCC(c2cc(C[C@H]3O[C@H](CO)[C@H](O)[C@H](n4cc(-c5cc(F)cc(Cl)c5)nn4)[C@H]3OC)no2)CC1 [Ex 1.200]
7.17 | 5.53 | CCOC(=O)N1CCC(c2cc(C[C@H]3O[C@H](CO)[C@H](O)[C@H](n4cc(-c5ccc(C)c(F)c5)nn4)[C@H]3OC)no2)CC1 [Ex 1.201]
7.48 | 5.40 | CCOC(=O)N1CCC(c2cc(C[C@H]3O[C@H](CO)[C@H](O)[C@H](n4cc(-c5cc(F)c(C)c(F)c5)nn4)[C@H]3OC)no2)CC1 [Ex 1.202]
7.59 | 5.75 | CCOC(=O)N1CCC(c2cc(C[C@H]3O[C@H](CO)[C@H](O)[C@H](n4cc(-c5ccc(Cl)c(F)c5F)nn4)[C@H]3OC)no2)CC1 [Ex 1.203]
7.39 | 4.76 | CC(=O)O[C@@H]1[C@@H](n2cc(-c3ccc(C)c(F)c3F)nn2)[C@@H](O)[C@@H](CO)O[C@@H]1Cc1cc(C(C)(C)C)on1 [Ex 1.204]
7.39 | 5.05 | Cc1ccc(-c2cn([C@H]3[C@@H](O)[C@@H](CO)O[C@H](Cc4cc(C(C)(C)C)on4)[C@@H]3O)nn2)c(F)c1F [Ex 1.205]
7.08 | 5.87 | CO[C@@H]1[C@@H](n2cc(-c3cc(F)c(F)c(F)c3)nn2)[C@@H](O)[C@@H](CO)O[C@@H]1Cc1cc(C(C)(C)C)no1 [Ex 1.206]
6.96 | 5.94 | CO[C@@H]1[C@@H](n2cc(-c3cc(F)c(F)c(F)c3)nn2)[C@@H](O)[C@@H](CO)O[C@@H]1Cc1cc(C(C)(C)CO)no1 [Ex 1.207]
6.89 | 5.79 | CCOC(=O)CC(C)(C)c1cc(C[C@H]2O[C@H](CO)[C@H](O)[C@H](n3cc(-c4cc(F)c(F)c(F)c4)nn3)[C@H]2OC)on1 [Ex 1.208]

pIC50 [1] | pIC50 [2] | Structure (SMILES)
6.59 | 5.44 | CO[C@@H]1[C@@H](n2cc(-c3cc(F)c(F)c(F)c3)nn2)[C@@H](O)[C@@H](CO)O[C@@H]1Cc1cc(C2(OC)CCCC2)no1 [Ex 1.209]
6.54 | 5.56 | CO[C@@H]1[C@@H](n2cc(-c3cc(F)c(F)c(F)c3)nn2)[C@@H](O)[C@@H](CO)O[C@@H]1Cc1cc(C2(OC)CCCCC2)no1 [Ex 1.210]
7.03 | 6.35 | CO[C@@H]1[C@@H](n2cc(-c3cc(F)c(F)c(F)c3)nn2)[C@@H](O)[C@@H](CO)O[C@@H]1Cc1cc(C2(C)COC2)no1 [Ex 1.211]
6.80 | 5.80 | CCC1(c2cc(C[C@H]3O[C@H](CO)[C@H](O)[C@H](n4cc(-c5cc(F)c(F)c(F)c5)nn4)[C@H]3OC)on2)COC1 [Ex 1.212]
6.80 | 5.81 | CO[C@@H]1[C@@H](n2cc(-c3cc(F)c(F)c(F)c3)nn2)[C@@H](O)[C@@H](CO)O[C@@H]1Cc1cc(C2(F)CC2)no1 [Ex 1.213]
6.89 | 6.04 | CO[C@@H]1[C@@H](n2cc(-c3cc(F)c(F)c(F)c3)nn2)[C@@H](O)[C@@H](CO)O[C@@H]1Cc1cc(C2(C(F)F)CC2)no1 [Ex 1.214]
7.00 | 6.21 | CO[C@@H]1[C@@H](n2cc(-c3cc(F)c(F)c(F)c3)nn2)[C@@H](O)[C@@H](CO)O[C@@H]1Cc1cc(C2(C)CC2)no1 [Ex 1.215]
6.47 | 5.40 | CO[C@@H]1[C@@H](n2cc(-c3cc(F)c(F)c(F)c3)nn2)[C@@H](O)[C@@H](CO)O[C@@H]1Cc1cc(C(C)(C)NC(=O)OC(C)(C)C)no1 [Ex 1.216]
6.74 | 5.69 | CO[C@@H]1[C@@H](n2cc(-c3cc(F)c(F)c(F)c3)nn2)[C@@H](O)[C@@H](CO)O[C@@H]1Cc1cc(C(C)(C)N)no1 [Ex 1.217]
6.38 | 4.97 | CO[C@@H]1[C@@H](n2cc(-c3cc(F)c(F)c(Cl)c3)nn2)[C@@H](O)[C@@H](CO)O[C@@H]1Cc1cc(C2CCCCC2)on1 [Ex 1.218]
7.64 | 6.37 | CO[C@@H]1[C@@H](n2cc(-c3cc(F)c(F)c(Cl)c3)nn2)[C@@H](O)[C@@H](CO)O[C@@H]1Cc1cc(C2CCN(C(C)=O)CC2)on1 [Ex 1.219]
7.46 | 6.24 | CCOC(=O)N1CCC(c2cc(C[C@H]3O[C@H](CO)[C@H](O)[C@H](n4cc(-c5cc(F)c(F)c(Cl)c5)nn4)[C@H]3OC)no2)CC1 [Ex 1.220]
6.80 | 6.01 | CO[C@@H]1[C@@H](n2cc(-c3cc(F)c(F)c(Cl)c3)nn2)[C@@H](O)[C@@H](CO)O[C@@H]1Cc1cc(C(C)(C)C)on1 [Ex 1.221]
6.96 | 5.10 | CO[C@@H]1[C@@H](n2cc(-c3cc(F)c(F)c(F)c3)nn2)[C@@H](O)[C@@H](CO)O[C@@H]1Cc1cc(C2CCCC2)no1 [Ex 1.222]
6.42 | 4.78 | CO[C@@H]1[C@@H](n2cc(-c3cc(F)c(C#N)c(F)c3)nn2)[C@@H](O)[C@@H](CO)O[C@@H]1CC1CC(C2CCN(C(=O)OC(C)(C)C)CC2)=NO1 (stereo partly shown) [Ex 1.223]
7.15 | 4.85 | CO[C@@H]1[C@@H](n2cc(-c3ccc(C)c(F)c3F)nn2)[C@@H](O)[C@@H](CO)O[C@@H]1Cc1cc(C2CCC2)on1 [Ex 1.224]
6.28 | 5.31 | CO[C@@H]1[C@@H](n2cc(-c3cc(F)c(F)c(F)c3)nn2)[C@@H](O)[C@@H](CO)O[C@@H]1Cc1cc(C2(O)CCC2)on1 [Ex 1.225]
6.89 | 5.92 | CO[C@@H]1[C@@H](n2cc(-c3ccc(F)c(F)c3F)nn2)[C@@H](O)[C@@H](CO)O[C@@H]1Cc1cc(C2CCC2)on1 [Ex 1.226]
7.11 | 4.78 | CO[C@@H]1[C@@H](n2cc(-c3ccc(Cl)c(F)c3F)nn2)[C@@H](O)[C@@H](CO)O[C@@H]1Cc1cc(C2CCC2)on1 [Ex 1.227]
6.70 | 6.10 | CO[C@@H]1[C@@H](n2cc(-c3cccc(F)c3)nn2)[C@@H](O)[C@@H](CO)O[C@@H]1Cc1cc(C2CCN(C(=O)OC(C)(C)C)CC2)on1 [Ex 1.228]
6.28 | < 4.00 | CO[C@@H]1[C@@H](n2cc(-c3ccc(C)c(F)c3F)nn2)[C@@H](O)[C@@H](CO)O[C@@H]1Cc1cc(-c2ccc(F)c(F)c2F)on1 [Ex 1.229]
6.04 | < 4.00 | CO[C@@H]1[C@@H](n2cc(-c3ccc(Cl)c(F)c3F)nn2)[C@@H](O)[C@@H](CO)O[C@@H]1Cc1cc(-c2ccc(F)c(F)c2F)on1 [Ex 1.231]
7.00 | 6.01 | CO[C@@H]1[C@@H](n2cc(-c3ccc(F)c(F)c3F)nn2)[C@@H](O)[C@@H](CO)O[C@@H]1Cc1cc(C(C)(C)O)on1 [Ex 1.232]
